Source: PMC8273887 (Journal of Medicinal Chemistry, 2021)
“Also recorded” adds a separate entry of the source. Bridge positions count the residues as written; N and C are the ends. Ends that are not written are not given here.

Tests used:
[1] = Stability in simulated intestinal fluid (SIF); assay type: in vitro ADME; settings: pig, simulated intestinal fluid (SIF) with porcine pancreatin, pH 6.8, 15 μL of 1 mM peptide stock in 285 μL SIF, 37 °C, samples 0 min-24 h quenched with 5% aqueous TFA, RP-HPLC/LC-MS peak area as % of time 0, exponential one-phase decay fit, read-out: t1/2 in SIF
Protocol: (§1) We exposed TFF3(C^57Acm) and TFF3 homodimer to simulated gastric fluid (SGF, containing pepsin, pH 1.3) and simulated intestinal fluid (SIF, containing pancreatic enzymes, pH 6.8), and monitored the mixture over 24 h by analytical RP-HPLC and MS. The N- and C-termini of TFF3 and its homodimer were readily truncated in both SGF and SIF (Figure 4A,B). In SGF, TFF3 was cleaved at Leu^6/Ser^7 followed by cleavage at Glu^54/Ala^55 (t1/2 < 5 min). In SIF, TFF3 was cleaved first at Thr^58/Phe^59 followed by cleavage at Leu^6/Ser^7, Glu^56/Cys^57, and Ala^55/Glu^56 (t1/2 < 5 min). TFF3 homodimer, in both SGF (t1/2 ∼ 40 min) and SIF (t1/2 < 5 min), was first broken down to monomeric TFF3 through simultaneous cleavage at Leu^6 and Glu^54 or Ala^55, eventually leading to the same metabolites as TFF3 (Figure 4B).
(§2) Simulated gastric fluid (SGF) was prepared by dissolving 20 mg of NaCl and 8 mg of pepsin in 70 μL of concentrated HCl (32%), and the volume was diluted to 10 mL with Milli-Q water (pH 1.3).[76],[77] Simulated intestinal fluid (SIF) was prepared by dissolving 68 mg of KH2PO4 in 500 μL of Milli-Q water followed by the addition of 800 μL of 0.2 M NaOH and 100 mg of porcine pancreatin, and the volume was adjusted to 10 mL with Milli-Q water (pH 6.8).[76],[77] Peptide stock solution (1 mM; 15 μL) was added to SGF (285 μL) or SIF (285 μL) and incubated at 37 °C. Samples (30 μL) from SGF and SIF were taken at 0, 5, 15, and 30 min and 1, 2, 4, 8, and 24 h timepoints and subsequently quenched with 30 μL of 0.2 M Na2CO3 (SGF) or 30 μL of 5% aqueous TFA (SIF). The samples were analyzed by analytical RP-HPLC (30 μL) and/or LC-MS (20 μL). The amount of peptide remaining was determined by measuring the peak area and expressing it as a % of the peak area at time 0. Peptide half-life (t1/2) was determined from the peptide degradation profiles using an exponential one-phase decay fit in Prism (version 7, GraphPad, La Jolla). LC-MS analysis was performed in a Q-Star Pulsar mass spectrometer (SCIEX, Ontario, Canada), and the raw data spectra were processed using the peptide reconstruction tool in the BioAnalyst software to identify the mass of the metabolites. The stability of the disulfide bonds was assessed through incubation of the peptides (10 μM) with 10 equiv of reduced glutathione (GSH; 100 μM) in sodium phosphate (50 mM) buffer at pH 7.2. Samples were taken at timepoints 0, 4, 8, and 24 h, quenched by adding 10% TFA, and analyzed by analytical RP-HPLC using an analytical C3 column (Agilent Zorbax SB-C3, 5 μm, 2.1 mm × 250 mm, 300 Å).

trypsin = settings: incubated with trypsin; fragments identified
From the text: We then synthesized the trefoil domain (TFF3_10-50, single-chain assembly via Fmoc-SPPS) to investigate its gut stability. We acetylated the N-terminus (Gln^10) of the trefoil domain to prevent the formation of pyroglutamic acid.

[2] = Stability in simulated gastric fluid (SGF); assay type: in vitro ADME, porcine; settings: SGF with pepsin, pH 1.3, 37 °C, 24 h; RP-HPLC and MS
Protocol: as §1, §2

porcine pancreatin = experiment: simulated intestinal fluid (SIF, containing pancreatic enzymes, pH 6.8); settings: 37 °C, up to 24 h
pepsin = experiment: simulated gastric fluid (SGF, containing pepsin, pH 1.3); settings: porcine, 37 °C, up to 24 h
human saliva = settings: cited from earlier work
[3] = Stability of disulfide bonds with reduced glutathione (GSH); assay type: physicochemical; settings: peptide 10 μM, 10 equiv reduced glutathione (100 μM), 50 mM sodium phosphate buffer pH 7.2; timepoints 0, 4, 8, 24 h; analytical C3 RP-HPLC
From the text: In certain physiological environments, disulfide bonds are prone to scrambling or reductive cleavage, thereby affecting peptide integrity.[67] Thus, we also evaluated the stability of the disulfide bonds of TFF3 in the presence of 10 equivalents of reduced glutathione (GSH) at pH 7 by time-course analytical RP-HPLC. […] While this was expected for the relatively buried disulfide bonds within the trefoil domain (TFF3_10-50), it highlights that also the disulfide bond outside of the trefoil domain is well protected.
Simulated gastric fluid (SGF) was prepared by dissolving 20 mg of NaCl and 8 mg of pepsin in 70 μL of concentrated HCl (32%), and the volume was diluted to 10 mL with Milli-Q water (pH 1.3).[76],[77] […] The samples were analyzed by analytical RP-HPLC (30 μL) and/or LC-MS (20 μL). The amount of peptide remaining was determined by measuring the peak area and expressing it as a % of the peak area at time 0. Peptide half-life (t1/2) was determined from the peptide degradation profiles using an exponential one-phase decay fit in Prism (version 7, GraphPad, La Jolla). […] The stability of the disulfide bonds was assessed through incubation of the peptides (10 μM) with 10 equiv of reduced glutathione (GSH; 100 μM) in sodium phosphate (50 mM) buffer at pH 7.2. […]

CXCR4 = biological target: T1, CXCR4 (Homo sapiens, UniProt P61073); experiment: Inositol 1 phosphate (IP1) accumulation assay (HTRF) in COS-7 cells transfected with CXCR4; assay type: cell-based; settings: 5 min preincubation with peptide (1 or 10 μM final), then CXCL12 10^-12 to 10^-5 M; COS-7/CXCR4; IP1 HTRF
T1 construct: expressed in transfected cells; host or cells: COS-7 (African green monkey), transient co-transfection with GαΔ6qi4myr
T1 sequence (P61073 whole entry): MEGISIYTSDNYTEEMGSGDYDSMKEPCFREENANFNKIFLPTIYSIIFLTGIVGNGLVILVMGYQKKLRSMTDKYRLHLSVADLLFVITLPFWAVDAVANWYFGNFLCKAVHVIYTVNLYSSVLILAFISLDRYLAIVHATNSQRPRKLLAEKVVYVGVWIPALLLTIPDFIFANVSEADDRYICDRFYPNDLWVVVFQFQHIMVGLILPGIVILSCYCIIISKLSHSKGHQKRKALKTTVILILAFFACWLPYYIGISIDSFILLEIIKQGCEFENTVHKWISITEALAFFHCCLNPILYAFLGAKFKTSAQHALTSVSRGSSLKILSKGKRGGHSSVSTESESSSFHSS
From the text: CXCR4 is a member of the G protein-coupled receptor (GPCR) family[58] and proposed as a target receptor for TFF3 to mediate wound healing.[30],[39] We therefore pharmacologically characterized TFF3(C^57Acm) and TFF3 homodimer at CXCR4. We used a chimeric Gαiq protein to switch the pathway to the Gαq signaling, which leads to the activation of the phospholipase and allows measurement of CXCR4 activation through the production of inositol 1 phosphate (IP1).[61]−[63] We measured IP1 accumulation upon stimulation with TFF3(C^57Acm) and TFF3 homodimer in fibroblast-like COS-7 cells transiently transfected with CXCR4.[58] This is a competitive immunoassay, based on the HTRF technology, where native IP1 produced by cells compete with labeled IP1 (acceptor) for binding to anti-IP1-cryptate (donor). The specific signal (i.e., Förster resonance energy transfer, FRET) is inversely proportional to the concentration of IP1 in the sample. The calculation of the fluorescence ratio eliminates possible medium interferences.[64]
COS-7 cells (fibroblast-like cells from African green monkey) were transiently co-transfected with the CXCR4 C-terminally fused to eYFP in pVitro2 vector and the untagged chimeric G protein GαΔ6qi4myr in pcDNA3.1 plasmid using Metafectene Pro according to manufacturer’s protocol. The cells were cultured in DMEM with higher glucose and supplemented with 10% FCS without any antibiotics at 37 °C and 5% CO2 in 95% humidity. Cisbio IP-One Gq assay kit was used according to previous description with minor modifications to measure activity.[80] Briefly, a standard curve was prepared in HBSS (Hanks’ balanced salt solution) with 20 mM LiCl to determine the linear range of the assay and 10 000 cells/well were cultured overnight in a 384-well flat white plate (Greiner Bio-one GmbH, Frickenhausen, Germany). TFF3 and its homodimer as well as CXCL12 were diluted in HBSS containing 20 mM LiCl. Stimulation was carried out for 1 h in triplicate at 37 °C. Subsequently, 3 μL of IP1-d2 and 3 μL of Ab-cryptate in lysis buffer were added to the wells and incubated on a tumbler for 60 min at 25 °C. Fluorescence was then measured at 620 and 665 nm and the HTRF (homogeneous time-resolved fluorescence) ratio (665/620 nm) was calculated. Data analysis was performed with Prism (version 7, GraphPad, La Jolla). Tested compounds were normalized to CXCL12 wild type, with the highest HTRF ratio set to 0% and the lowest HTRF ratio set to 100% response. […] The final concentration range of 10^–12 to 10^–5 M to CXCL12 and 1 or 10 μM to TFF3(C^57Acm) and TFF3 homodimer was achieved by adding the compounds from a threefold concentrated stock solution.

Ac-QCAVPAKDRVDCGYPHVTPKECNNRGCCFDSRIPGVPWCFK-NH2 (disulfide 2-28, 12-27, 22-39) [TFF3_10-50]
half-life at 50 μM [1]: < 30 min | cleavage sites on incubation with trypsin (trypsin): cleavages at Lys^16, Arg^18, and Arg^41 | stability in SGF over 24 h (in words) [2]: stable

EEYVGLSANQCAVPAKDRVDCGYPHVTPKECNNRGCCFDSRIPGVPWCFKPLQEAECTF
cleaved bond (porcine pancreatin): Leu6-Ser7, first_seen | fragment found (porcine pancreatin): S^7ANQCAVPAKDRVDCGYPHVTPKECNNRGCCFDSRIPGVPWCFKPLQEAE^56 | cleaved bond (pepsin): Leu6-Ser7, first_seen; also recorded: Glu54-Ala55, first_seen; also recorded: Ala55-Glu56, first_seen | cleaved bond (human saliva): Thr58-Phe59

TFF3: 59-residue trefoil factor 3 peptide, three intrachain disulfide bonds, free Cys^57; chemically synthesized by native chemical ligation (EEYVGLSANQCAVPAKDRVDCGYPHVTPKECNNRGCCFDSRIPGVPWCFKPLQEAECTF; disulfide 11-37, 21-36, 31-48)
disulfide bond reduction or scrambling in presence of GSH [3]: No disulfide bond reduction or scrambling was observed | effect on the EC50 of CXCL12 at CXCR4 (antagonism) (CXCR4): not affected
